Results: patent US20240059693A1, “FUSED BICYCLIC PYRAZOLE DERIVATIVES AND METHODS OF USE THEREOF FOR THE TREATMENT OF HERPESVIRUSES” (Merck Sharp & Dohme LLC, priority 2020, published 2024)
Where two headings read alike, the source gives them in different places.

How the values were obtained:
HCMV Strain AD169 = assay: Viral qPCR assay, HCMV in MRC-5 cells; assay type: cell-based, Human cytomegalovirus; settings: read-out: CMV MRC5 Cell (EC50)
Procedure: (§1) MRCS cells, Vero cells, and MeWo cells were obtained from ATCC and were maintained at 37° C./5% CO2/90% relative humidity in Minimal Essential Medium with 10% fetal bovine serum, […] L-glutamine, 100 units/ml penicillin and 100 ug/ml streptomycin. Assay plates were prepared by dispensing compounds dissolved in DMSO into wells of 384 well collagen-coated plates using an ECHO acoustic dispenser. Each compound was tested in a 10-point, serial 3-fold dilution. Controls included uninfected cells and infected cells treated only with DMSO. Assays were initiated by mixing selected cells, in suspension, with virus, and dispensing 50 μl/well infected cells to pre-plated compounds. Plates were incubated at 37° C./5% CO2/90% relative humidity for ˜72 hrs to permit genomic replication, and infected cells were lysed by the addition of an equal volume of lysis buffer (10 mM Tris-HCl, pH8, 50 mM KCl, 2 mM MgCl2, 0.45% NP-40, 0.45% Tween-20, and 100 μg/ml proteinase K). An aliquot of the lysate was transferred to a 384-well PCR plate and incubated at 56° C. for 1 hour and then at 95° C. for 10 min. Levels of a viral gene and of the cellular control, PPIA (Thermo Fisher Assay ID=Hs04194521_s1), were measured in separate 10 μL qPCR assays using TaqMan® Gene Expression Master Mix (Applied Biosystems), and an 7900HT Fast Real-Time PCR System with 384-Well Block Module. 7-point, serial 10-fold dilutions of a plasmid standard were run on each plate to generate a standard curve, and genome copies numbers were calculated by plotting experimental Ct onto linear regression of the standard curve. Viral genome copy numbers were normalized by cellular control copy number, and compound effects were normalized to the window defined by the controls. Calculated % effects were fit using a 4-parameter algorithm, and EC50 was reported.
as §1, with “gene” for “gene and of the cellular control, PPIA (Thermo Fisher Assay ID=Hs04194521_s1),”, “in” for “in separate”, “Compound effects on viral” for “Viral”, “number” for “numbers were normalized by cellular control copy number, and compound effects”
HCMV: Strain AD169 Street was assayed in MRC-5 cells and was used at 0.05-0.1 pfu/cell. The assays were performed in either growth media or in the same media with 50% fetal bovine serum. Primer-probe set was Thermo Fisher Assay ID=AIFATFK.

[1] = target: T1, Human cytomegalovirus DNA polymerase (Human cytomegalovirus, UniProt P08546); assay: HCMV polymerase assay (AlphaLISA); assay type: biochemical; settings: HCMV DNA polymerase 0.2 nM, 60 minutes at 37° C.; read-out: CMV (IC50)
T1 construct: made in house; host or cells: SF21 insect cells (baculovirus vector)
Procedure: Human cytomegalovirus and varicella zoster virus DNA polymerases were expressed via baculovirus vector in SF21 cells and purified. Heterodimeric nucleic acid substrate used in the herpesvirus polymerase reactions was generated by annealing a 59-mer template to a 17-mer digoxigenin-labeled primer. Polymerase (HCMV final concentration of 0.2 nM; VZV final concentration of 0.4 nM) was combined with an inhibitor compound or DMSO in assay buffer (10 mM HEPES, pH 7.5, 25 mM KCl, 25 mM NaCl, 5 mM MgCl2, 5% glycerol, 0.67 mg/ml bovine serum albuminutes, and 1 mM tris(2-carboxyethyl)phosphine), and this mixture was pre-incubated for 30 minutes at room temperature in 384-well microtiter plates. The polymerization reaction was initiated by the addition of template/primer substrate (final concentration: 1.6 nM), and dNTPs (final concentration: 24 nM dCTP, 24 nMdGTP, 16 nM dATP, 16 nM dTTP, and 0.8 nM biotin-dUTP). After 60 minutes incubation at 37° C., reactions were terminated with quench buffer (25 mM HEPES pH 7.5, 100 mM NaCl, 0.25% Tween-20, 12 mM EDTA, and 1 mg/ml bovine serum albumin). Incorporation of biotinylated UTP was detected with 2.5-ug/ml anti-DIG AlphaLISA acceptor beads and 5-10 ug/ml streptavidin AlphaLISA donor beads (Perkin Elmer). Compound effects were normalized to the window defined by the controls (DMSO only and pre-quenched wells) and were fit using a 4-parameter algorithm to report an IC50.

[2] = Human betaherpesvirus 5, AD169, MRC5, 72 h

T1 sequence (P08546 whole entry): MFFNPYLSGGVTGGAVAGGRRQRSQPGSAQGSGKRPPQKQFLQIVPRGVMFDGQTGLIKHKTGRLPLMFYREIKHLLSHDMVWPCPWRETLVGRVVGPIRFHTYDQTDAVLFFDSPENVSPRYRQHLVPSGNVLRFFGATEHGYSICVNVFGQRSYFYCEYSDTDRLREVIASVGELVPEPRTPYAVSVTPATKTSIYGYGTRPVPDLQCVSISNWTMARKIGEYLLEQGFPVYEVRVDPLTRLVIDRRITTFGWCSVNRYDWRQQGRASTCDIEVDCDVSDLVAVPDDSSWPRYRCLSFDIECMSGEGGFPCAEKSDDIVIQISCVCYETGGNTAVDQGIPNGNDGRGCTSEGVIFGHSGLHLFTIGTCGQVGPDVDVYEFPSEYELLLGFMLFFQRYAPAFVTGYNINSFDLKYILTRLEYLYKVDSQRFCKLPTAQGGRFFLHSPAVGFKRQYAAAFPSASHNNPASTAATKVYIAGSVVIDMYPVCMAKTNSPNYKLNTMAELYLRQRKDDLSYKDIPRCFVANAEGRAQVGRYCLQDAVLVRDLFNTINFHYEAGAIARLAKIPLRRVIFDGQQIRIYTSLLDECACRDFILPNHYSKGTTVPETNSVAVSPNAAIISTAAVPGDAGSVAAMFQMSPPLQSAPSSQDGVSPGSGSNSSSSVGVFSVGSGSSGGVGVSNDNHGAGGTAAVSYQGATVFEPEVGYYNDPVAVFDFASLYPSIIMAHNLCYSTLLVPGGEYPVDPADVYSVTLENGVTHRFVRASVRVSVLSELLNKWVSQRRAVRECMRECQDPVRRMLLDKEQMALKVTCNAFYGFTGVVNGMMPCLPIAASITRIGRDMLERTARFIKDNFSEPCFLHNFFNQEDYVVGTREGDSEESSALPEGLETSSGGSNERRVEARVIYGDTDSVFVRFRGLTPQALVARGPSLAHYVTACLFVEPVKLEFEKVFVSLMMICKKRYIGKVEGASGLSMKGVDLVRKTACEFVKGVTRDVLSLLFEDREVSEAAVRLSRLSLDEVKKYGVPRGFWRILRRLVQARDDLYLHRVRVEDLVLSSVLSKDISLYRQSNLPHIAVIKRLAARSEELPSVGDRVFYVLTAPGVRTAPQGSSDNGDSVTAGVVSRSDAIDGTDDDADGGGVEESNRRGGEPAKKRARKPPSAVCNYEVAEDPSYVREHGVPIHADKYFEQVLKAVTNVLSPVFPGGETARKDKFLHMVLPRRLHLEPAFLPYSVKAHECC

SMILES: CCC(C1CCC(=O)N1)N1Cc2c(C(=O)NCc3ccc(Cl)cc3)nn(C)c2C1 (stereo not shown) [Compound 92]
- EC50 (HCMV Strain AD169; MRC5 cells, ~72 hrs): 65900 nM
- IC50 [1]: 1180 nM

SMILES: O=C1CC[C@H](CN2Cc3c(C(=O)NCc4ccc(Cl)cc4)nn([C@@H]4CCCOC4)c3C2)N1 [Compound 49]
- EC50 (HCMV Strain AD169; [2]): 3540 nM
- IC50 [1]: 87.5 nM

SMILES: CC([C@@H]1CCC(=O)N1)N1Cc2c(C(=O)NCc3ccc(Cl)cc3)nn(-c3nccs3)c2C1 (single isomer, unassigned) [Compound 6]
- EC50 (HCMV Strain AD169; MRC5 cells, ~72 hrs): 5870 nM
- IC50 [1]: 958 nM

SMILES: Cc1nnc2n1C(CN1Cc3c(C(=O)NCc4ccc(Cl)cc4)nn(C)c3C1)CC2 (stereo not shown) [Compound 97]
- IC50 [1]: 174 nM

SMILES: CC(C)C(O)Cn1nc(C(=O)NCc2ccc(Cl)cc2)c2c1CN(C[C@H]1CCC(=O)N1)C2 (stereo partly shown) [Compound 56]
- EC50 (HCMV Strain AD169; [2]): 1800 nM
- IC50 [1]: 129 nM

SMILES: O=C(NCc1ccc(Cl)cc1)c1nn(CCNC(=O)C2CCC2)c2c1CN(Cc1c(F)cncc1F)C2 [Compound 64]
- IC50 [1]: 64 nM

SMILES: CC(C)[C@H]1c2c(c(C(=O)NCc3ccc(Cl)cc3)nn2C)CN1C(C)C1CCC(=O)N1 (single isomer, unassigned) [Compound 115]
- EC50 (HCMV Strain AD169; [2]): 4240 nM
- IC50 [1]: 566 nM

SMILES: O=C1CC[C@@H](CN2Cc3c(C(=O)NCc4ccc(Cl)cc4)nn([C@H]4CCCOC4)c3C2)N1 [Compound 52]
- EC50 (HCMV Strain AD169; [2]): 885 nM
- IC50 [1]: 150 nM

SMILES: O=C1CC[C@H](CN2Cc3c(C(=O)NCc4ccc(Cl)cc4)nn(-c4ncc[nH]4)c3C2)N1 [Compound 14]
- EC50 (HCMV Strain AD169; [2]): 1030 nM
- IC50 [1]: 25.8 nM

SMILES: O=C1CC[C@@H](CN2Cc3c(C(=O)NCc4ccc(Cl)cc4)nn(C4CCOCC4)c3C2)N1 [Compound 53]
- EC50 (HCMV Strain AD169; [2]): 2090 nM
- IC50 [1]: 124 nM

SMILES: CC(C)[C@H]1c2c(c(C(=O)NCc3ccc(Cl)cc3)nn2C)CN1C(C)C1CCC(=O)N1 (single isomer, unassigned) [Compound 118]
- EC50 (HCMV Strain AD169; MRC5 cells, ~72 hrs): 1600 nM
- IC50 [1]: 83.7 nM

SMILES: Cn1nc(C(=O)NCc2ccc(C#N)c(F)c2)c2c1CN(C[C@H]1CCC(=O)N1)C2 [Compound 62]
- IC50 [1]: 62.5 nM

SMILES: O=C(NCc1ccc(Cl)cc1)c1nn(CCNC(=O)C2CCC2)c2c1CN(Cc1ccncc1Cl)C2 [Compound 70]
- IC50 [1]: 1710 nM

SMILES: O=C1CC[C@@H](CN2Cc3c(C(=O)NCc4ccc(Cl)cc4)nn(C4CCC(F)(F)C4)c3C2)N1 (single isomer, unassigned) [Compound 54]
- EC50 (HCMV Strain AD169; MRC5 cells, ~72 hrs): 1580 nM
- IC50 [1]: 146 nM

SMILES: Cn1nc(C(=O)NCc2ccc(Cl)cc2)c2c1CN(C[C@H]1CC(F)(F)C(=O)N1)C2 [Compound 81]
- EC50 (HCMV Strain AD169; [2]): 1280 nM
- IC50 [1]: 557 nM

SMILES: O=C(NCc1ccc(Cl)cc1)c1nn(CCNC(=O)C2CCC2)c2c1CN(Cc1ccnc(F)c1)C2 [Compound 67]
- IC50 [1]: 119 nM

SMILES: CC(C1CC(F)(F)C(=O)N1)N1Cc2c(C(=O)NCc3ccc(Cl)cc3)nn(C)c2C1 (stereo not shown) [Compound 85]
- EC50 (HCMV Strain AD169; MRC5 cells, ~72 hrs): 3360 nM
- IC50 [1]: 1050 nM

SMILES: CC(C)(C)c1csc(-n2nc(C(=O)NCc3ccc(Cl)cc3)c3c2CN(C[C@H]2CCC(=O)N2)C3)n1 [Compound 21]
- EC50 (HCMV Strain AD169; [2]): 2670 nM
- IC50 [1]: 157 nM

SMILES: CC(C1CC(F)C(=O)N1)N1Cc2c(C(=O)NCc3ccc(Cl)cc3)nn(C)c2C1 (stereo not shown) [Compound 75]
- EC50 (HCMV Strain AD169; MRC5 cells, ~72 hrs): 2020 nM
- IC50 [1]: 70.9 nM

SMILES: O=C1CC[C@H](CN2Cc3c(C(=O)NCc4ccc(Cl)cc4)nn(C4CCOCC4)c3C2)N1 [Compound 50]
- EC50 (HCMV Strain AD169; [2]): 1480 nM
- IC50 [1]: 125 nM

SMILES: CCC1c2c(c(C(=O)NCc3ccc(Cl)cc3)nn2C)CN1CC1CCC(=O)N1 (single isomer, unassigned) [Compound 104]
- EC50 (HCMV Strain AD169; MRC5 cells, ~72 hrs): 38700 nM
- IC50 [1]: 1810 nM

SMILES: O=C(NCc1ccc(Cl)cc1)c1nn(C(F)F)c2c1CN(CC13CC(C1)C(=O)N3)C2 [Compound 98]
- EC50 (HCMV Strain AD169; [2]): 1400 nM
- IC50 [1]: 534 nM

SMILES: CC1c2c(c(C(=O)NCc3ccc(Cl)cc3)nn2C)CN1CC1CCC(=O)N1 (single isomer, unassigned) [Compound 102]
- EC50 (HCMV Strain AD169; MRC5 cells, ~72 hrs): 71200 nM
- IC50 [1]: 5770 nM

SMILES: CC([C@@H]1CCC(=O)N1)N1Cc2c(C(=O)NCc3ccc(Cl)cc3)nn(C(F)F)c2C1 (stereo partly shown) [Compound 72]
- IC50 [1]: 976 nM

SMILES: CN(CCn1nc(C(=O)NCc2ccc(Cl)cc2)c2c1CN(Cc1ccncc1Cl)C2)C(=O)C1CCC1 [Compound 65]
- IC50 [1]: 64.5 nM
